The record followed here is ChEMBL document CHEMBL5291721, “A preclinical secondary pharmacology resource illuminates target-adverse drug reaction associations of marketed drugs” (Nat Commun, 2023).

The target in one assay is Prothrombin (Homo sapiens, UniProt P00734). It is filed as functional.
Another assay concerns the target T1, Estrogen receptor (Homo sapiens, UniProt P03372).
T1 sequence (P03372 whole entry): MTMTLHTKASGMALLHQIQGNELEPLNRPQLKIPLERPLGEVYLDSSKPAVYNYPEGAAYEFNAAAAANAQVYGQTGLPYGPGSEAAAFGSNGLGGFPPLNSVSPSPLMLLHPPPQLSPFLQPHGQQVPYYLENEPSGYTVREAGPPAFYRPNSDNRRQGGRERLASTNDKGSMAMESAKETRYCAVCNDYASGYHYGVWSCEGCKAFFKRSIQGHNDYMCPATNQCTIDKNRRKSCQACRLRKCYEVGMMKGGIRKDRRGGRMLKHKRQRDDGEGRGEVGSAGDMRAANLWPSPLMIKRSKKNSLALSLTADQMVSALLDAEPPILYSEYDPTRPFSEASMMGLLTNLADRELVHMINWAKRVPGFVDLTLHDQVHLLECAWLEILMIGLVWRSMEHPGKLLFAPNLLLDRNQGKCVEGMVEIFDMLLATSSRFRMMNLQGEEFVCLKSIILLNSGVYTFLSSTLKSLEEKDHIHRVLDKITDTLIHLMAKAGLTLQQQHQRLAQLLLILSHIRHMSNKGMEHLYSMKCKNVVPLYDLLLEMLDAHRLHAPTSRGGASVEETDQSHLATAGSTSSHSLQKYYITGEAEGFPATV

For the next assay, the target named is T2, Thromboxane A2 receptor (Homo sapiens, UniProt P21731).
T2 sequence (P21731 whole entry): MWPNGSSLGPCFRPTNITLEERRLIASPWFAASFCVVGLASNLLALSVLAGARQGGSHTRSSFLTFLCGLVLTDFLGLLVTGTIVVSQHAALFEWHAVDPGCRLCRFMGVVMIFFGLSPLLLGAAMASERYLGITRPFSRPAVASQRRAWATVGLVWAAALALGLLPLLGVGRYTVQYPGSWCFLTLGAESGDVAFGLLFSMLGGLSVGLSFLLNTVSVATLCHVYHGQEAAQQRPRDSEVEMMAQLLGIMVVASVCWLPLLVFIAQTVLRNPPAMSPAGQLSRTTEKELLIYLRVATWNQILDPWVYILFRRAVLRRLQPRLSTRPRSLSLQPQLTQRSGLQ

The target in assay [1] is Sodium-dependent noradrenaline transporter (Homo sapiens, UniProt P23975).
Assay [2] has as its target T3, Neuropeptide Y receptor type 1 (Homo sapiens, UniProt P25929).
T3 sequence (P25929 whole entry): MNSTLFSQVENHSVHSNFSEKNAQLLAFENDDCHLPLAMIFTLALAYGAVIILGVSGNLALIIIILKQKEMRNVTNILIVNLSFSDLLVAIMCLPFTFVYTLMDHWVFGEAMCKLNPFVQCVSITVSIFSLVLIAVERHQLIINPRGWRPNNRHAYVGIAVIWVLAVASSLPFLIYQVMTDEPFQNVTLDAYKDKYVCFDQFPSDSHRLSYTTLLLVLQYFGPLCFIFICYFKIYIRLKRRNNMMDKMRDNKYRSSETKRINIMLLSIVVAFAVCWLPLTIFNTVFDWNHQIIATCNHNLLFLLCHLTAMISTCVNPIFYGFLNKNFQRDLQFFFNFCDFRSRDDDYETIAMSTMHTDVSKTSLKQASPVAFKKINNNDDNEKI

In assay [3] the target is T4, 5-hydroxytryptamine receptor 1A (Homo sapiens, UniProt P08908).
T4 sequence (P08908 whole entry): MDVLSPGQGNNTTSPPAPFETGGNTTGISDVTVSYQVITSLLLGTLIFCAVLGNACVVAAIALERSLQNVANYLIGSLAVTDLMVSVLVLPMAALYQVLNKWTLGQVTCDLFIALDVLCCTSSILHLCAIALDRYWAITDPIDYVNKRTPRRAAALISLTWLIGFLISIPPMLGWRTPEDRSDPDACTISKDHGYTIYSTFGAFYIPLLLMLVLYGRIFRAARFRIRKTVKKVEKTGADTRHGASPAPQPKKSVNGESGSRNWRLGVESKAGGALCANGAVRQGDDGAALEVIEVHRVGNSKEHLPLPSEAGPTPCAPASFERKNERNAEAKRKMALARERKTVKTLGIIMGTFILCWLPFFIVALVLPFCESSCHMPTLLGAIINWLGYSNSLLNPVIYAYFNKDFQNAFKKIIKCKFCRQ

The target of assay [4] is Voltage-dependent L-type calcium channel subunit alpha-1C (Rattus norvegicus, UniProt P22002). It is filed as functional.
For assay [5], the target named is T5, Mu-type opioid receptor (Homo sapiens, UniProt P35372). The assay can be described thus: biochemical. It is filed as functional.
In assay [6] the target is T5, Mu-type opioid receptor.
Assay [7] has as its target T6, Alpha-1A adrenergic receptor (Homo sapiens, UniProt P35348).
T6 sequence (P35348 whole entry): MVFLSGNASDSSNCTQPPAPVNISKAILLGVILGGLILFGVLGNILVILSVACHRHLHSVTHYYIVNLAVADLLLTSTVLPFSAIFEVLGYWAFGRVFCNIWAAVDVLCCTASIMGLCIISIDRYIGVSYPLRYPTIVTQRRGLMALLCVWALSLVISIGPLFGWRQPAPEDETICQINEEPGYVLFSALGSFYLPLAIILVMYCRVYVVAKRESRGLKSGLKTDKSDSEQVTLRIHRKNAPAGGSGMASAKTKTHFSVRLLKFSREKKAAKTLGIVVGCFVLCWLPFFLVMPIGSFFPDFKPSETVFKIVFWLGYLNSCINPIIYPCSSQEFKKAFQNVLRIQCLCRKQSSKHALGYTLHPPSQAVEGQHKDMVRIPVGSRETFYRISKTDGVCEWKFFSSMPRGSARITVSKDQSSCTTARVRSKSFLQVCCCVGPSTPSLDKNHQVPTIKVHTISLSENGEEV

For the next assay, the target named is T7, Adenosine receptor A3 (Homo sapiens, UniProt P0DMS8).
T7 sequence (P0DMS8 whole entry): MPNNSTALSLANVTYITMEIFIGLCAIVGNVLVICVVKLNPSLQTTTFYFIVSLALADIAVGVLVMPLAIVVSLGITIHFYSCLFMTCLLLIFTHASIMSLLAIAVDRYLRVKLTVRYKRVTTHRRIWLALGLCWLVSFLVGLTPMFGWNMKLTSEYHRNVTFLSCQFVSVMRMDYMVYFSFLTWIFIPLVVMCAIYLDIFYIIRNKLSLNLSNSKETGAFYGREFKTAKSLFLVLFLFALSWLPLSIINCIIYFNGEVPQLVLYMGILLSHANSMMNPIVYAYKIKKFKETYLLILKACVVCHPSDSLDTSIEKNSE
Note: assay procedure not described here.

Sequence of Voltage-dependent L-type calcium channel subunit alpha-1C (P22002 whole entry): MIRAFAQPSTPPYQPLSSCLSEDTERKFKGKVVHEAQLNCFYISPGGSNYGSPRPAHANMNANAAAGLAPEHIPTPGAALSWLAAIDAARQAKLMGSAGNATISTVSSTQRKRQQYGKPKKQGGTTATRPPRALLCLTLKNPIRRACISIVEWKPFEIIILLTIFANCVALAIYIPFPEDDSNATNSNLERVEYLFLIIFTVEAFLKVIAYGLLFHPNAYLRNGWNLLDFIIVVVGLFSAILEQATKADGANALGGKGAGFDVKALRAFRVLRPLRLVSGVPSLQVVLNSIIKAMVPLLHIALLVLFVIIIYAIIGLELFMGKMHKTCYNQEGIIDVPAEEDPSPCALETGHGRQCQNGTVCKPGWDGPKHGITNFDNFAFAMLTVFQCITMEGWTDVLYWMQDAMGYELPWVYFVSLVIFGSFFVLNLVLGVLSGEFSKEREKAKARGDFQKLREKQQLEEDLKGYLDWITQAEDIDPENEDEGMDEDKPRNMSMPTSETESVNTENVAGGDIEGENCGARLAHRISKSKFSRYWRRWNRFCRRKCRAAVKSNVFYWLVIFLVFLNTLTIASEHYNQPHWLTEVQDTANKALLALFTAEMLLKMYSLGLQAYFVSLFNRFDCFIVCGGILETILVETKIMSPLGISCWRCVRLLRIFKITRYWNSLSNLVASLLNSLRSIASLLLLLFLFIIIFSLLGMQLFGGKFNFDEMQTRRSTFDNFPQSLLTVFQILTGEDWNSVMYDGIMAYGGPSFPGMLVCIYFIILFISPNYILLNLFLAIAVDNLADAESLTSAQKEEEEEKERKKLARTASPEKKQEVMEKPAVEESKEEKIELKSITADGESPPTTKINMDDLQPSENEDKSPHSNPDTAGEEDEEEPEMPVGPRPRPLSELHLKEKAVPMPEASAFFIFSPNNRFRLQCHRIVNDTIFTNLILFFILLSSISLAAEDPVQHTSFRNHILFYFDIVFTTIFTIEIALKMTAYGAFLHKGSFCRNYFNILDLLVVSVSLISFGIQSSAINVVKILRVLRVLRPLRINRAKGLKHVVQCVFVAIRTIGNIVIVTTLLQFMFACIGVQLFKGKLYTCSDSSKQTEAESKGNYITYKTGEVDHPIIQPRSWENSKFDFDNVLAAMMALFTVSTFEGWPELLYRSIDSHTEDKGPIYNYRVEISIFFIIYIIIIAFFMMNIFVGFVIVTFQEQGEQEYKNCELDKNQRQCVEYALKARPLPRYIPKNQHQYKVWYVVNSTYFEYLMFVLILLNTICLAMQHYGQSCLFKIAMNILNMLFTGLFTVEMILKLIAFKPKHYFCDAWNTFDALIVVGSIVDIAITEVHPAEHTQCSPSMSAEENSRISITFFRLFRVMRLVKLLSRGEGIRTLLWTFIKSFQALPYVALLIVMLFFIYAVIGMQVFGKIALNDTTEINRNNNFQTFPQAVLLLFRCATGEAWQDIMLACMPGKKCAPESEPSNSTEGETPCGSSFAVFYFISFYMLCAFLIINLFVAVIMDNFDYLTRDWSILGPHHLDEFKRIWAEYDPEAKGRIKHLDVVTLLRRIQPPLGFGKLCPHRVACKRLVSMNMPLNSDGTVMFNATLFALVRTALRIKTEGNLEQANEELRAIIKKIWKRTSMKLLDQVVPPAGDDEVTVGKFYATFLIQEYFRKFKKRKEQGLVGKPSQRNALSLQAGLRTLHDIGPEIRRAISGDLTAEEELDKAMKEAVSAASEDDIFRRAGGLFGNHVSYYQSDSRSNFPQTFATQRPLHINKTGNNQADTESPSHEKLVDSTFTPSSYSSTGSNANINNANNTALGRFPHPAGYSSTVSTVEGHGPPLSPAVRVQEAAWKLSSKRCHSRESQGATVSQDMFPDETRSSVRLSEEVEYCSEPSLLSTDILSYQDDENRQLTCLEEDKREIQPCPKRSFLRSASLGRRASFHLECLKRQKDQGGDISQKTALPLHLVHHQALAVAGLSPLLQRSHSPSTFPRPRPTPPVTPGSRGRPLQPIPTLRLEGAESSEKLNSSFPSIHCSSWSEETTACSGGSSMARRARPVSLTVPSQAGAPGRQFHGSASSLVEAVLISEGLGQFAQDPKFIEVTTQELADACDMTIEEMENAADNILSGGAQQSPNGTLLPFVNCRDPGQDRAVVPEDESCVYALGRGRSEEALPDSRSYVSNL
Sequence of Sodium-dependent noradrenaline transporter (P23975 whole entry): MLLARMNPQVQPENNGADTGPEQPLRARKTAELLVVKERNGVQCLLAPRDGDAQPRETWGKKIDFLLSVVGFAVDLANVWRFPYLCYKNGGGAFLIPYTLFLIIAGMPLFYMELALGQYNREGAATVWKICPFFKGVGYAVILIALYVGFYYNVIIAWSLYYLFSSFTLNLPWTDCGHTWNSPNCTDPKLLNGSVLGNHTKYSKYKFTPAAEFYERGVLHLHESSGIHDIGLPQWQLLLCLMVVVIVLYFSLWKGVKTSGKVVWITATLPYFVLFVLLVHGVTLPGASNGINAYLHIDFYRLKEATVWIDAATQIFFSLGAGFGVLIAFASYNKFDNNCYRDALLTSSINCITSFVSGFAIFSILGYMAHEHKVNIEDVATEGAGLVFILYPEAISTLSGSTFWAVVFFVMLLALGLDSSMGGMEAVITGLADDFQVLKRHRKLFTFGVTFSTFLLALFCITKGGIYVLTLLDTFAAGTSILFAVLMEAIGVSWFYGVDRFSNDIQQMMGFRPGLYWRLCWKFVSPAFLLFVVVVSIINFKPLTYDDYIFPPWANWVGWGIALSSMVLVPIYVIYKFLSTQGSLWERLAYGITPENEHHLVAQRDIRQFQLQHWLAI
T5 sequence (P35372 whole entry): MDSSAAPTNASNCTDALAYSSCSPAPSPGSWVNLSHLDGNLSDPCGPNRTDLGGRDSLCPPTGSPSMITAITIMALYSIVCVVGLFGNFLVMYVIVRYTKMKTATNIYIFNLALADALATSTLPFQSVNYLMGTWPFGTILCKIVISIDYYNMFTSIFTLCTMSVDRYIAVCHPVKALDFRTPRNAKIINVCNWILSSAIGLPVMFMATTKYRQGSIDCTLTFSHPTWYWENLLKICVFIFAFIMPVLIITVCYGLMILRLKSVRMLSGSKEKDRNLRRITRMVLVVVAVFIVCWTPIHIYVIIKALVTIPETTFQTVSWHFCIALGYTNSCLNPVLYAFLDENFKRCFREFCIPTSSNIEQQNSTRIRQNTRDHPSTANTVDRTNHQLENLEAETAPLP

For the compound `CC(=O)OCC(=O)[C@@]1(O)CC[C@H]2[C@@H]3CCC4=CC(=O)CC[C@]4(C)[C@H]3C(=O)C[C@@]21C` [CORTISONE ACETATE], the AC50 on Prothrombin and on Estrogen receptor was above 30 µM throughout.

With `COc1cc(Nc2c(C#N)cnc3cc(OCCCN4CCN(C)CC4)c(OC)cc23)c(Cl)cc1Cl` [BOSUTINIB], the concentration at half-maximal activity (AC50) was above 30 µM at Thromboxane A2 receptor; above 30 µM on Prothrombin; 24.1 µM in [1]; above 30 µM in assay [2]; 14.2 µM in [3]; above 30 µM at Estrogen receptor. Besides, in [4], the AC50 was above 10 µM.

`Cc1cc2c(cc1CC(=O)c1sccc1S(=O)(=O)Nc1onc(C)c1Cl)OCO2` [SITAXENTAN]: the AC50 (on Prothrombin; in assay [1]; in [3]; at Estrogen receptor) was above 30 µM in each case.

As for `CCC(=O)O[C@H]1[C@H](O[C@@H]2[C@@H](C)[C@H](O[C@H]3C[C@@](C)(OC)[C@@H](O)[C@H](C)O3)[C@@H](C)C(=O)O[C@H](CC)[C@@](C)(O)[C@H](O)[C@@H](C)C(=O)[C@H](C)C[C@@]2(C)O)O[C@H](C)C[C@@H]1N(C)C` [ERYTHROMYCIN PROPIONATE], the AC50 on Prothrombin is above 30 µM; in [1], 29.9 µM; in assay [3], 15.1 µM; at Estrogen receptor it was above 30 µM.

`CNC(=O)c1cc(Oc2ccc(NC(=O)Nc3ccc(Cl)c(C(F)(F)F)c3)cc2)ccn1` [SORAFENIB]: the AC50 is 16.3 µM on Thromboxane A2 receptor; above 30 µM at Mu-type opioid receptor [5]; above 30 µM at Mu-type opioid receptor [6]; above 10 µM in assay [7]; above 30 µM in assay [2]; above 30 µM in assay [4].

With `COC(=O)C1=C(C)NC(C)=C(C(=O)OCC(C)C)C1c1ccccc1[N+](=O)[O-]` (stereo not given) [NISOLDIPINE], the AC50 on Thromboxane A2 receptor is above 10 µM; on Mu-type opioid receptor [5], above 30 µM; at Mu-type opioid receptor [6], 9.4 µM; in [7] it was 16 µM; in assay [2], above 10 µM; in assay [4] it was 4.62 µM.

Turning to `OCCN1CCN(CCCN2c3ccccc3C=Cc3ccccc32)CC1` [OPIPRAMOL], the AC50 at Mu-type opioid receptor [5] was 15 µM; at Prothrombin, above 30 µM; in assay [1], 6.62 µM; in assay [2], above 30 µM; in assay [3], 9.25 µM; at Estrogen receptor, above 30 µM.

Turning to `NC1=NC(=O)C(c2ccccc2)O1` (stereo not given) [PEMOLINE], the concentration at half-maximal activity (AC50) at Thromboxane A2 receptor was above 30 µM; at Mu-type opioid receptor [5], above 30 µM; at Mu-type opioid receptor [6] it was above 30 µM; in assay [7], above 10 µM; in assay [2] it was above 30 µM; in assay [4], above 10 µM.

With `CN1C(=O)CC(C)(c2ccccc2)C1=O` (stereo not given) [METHSUXIMIDE], the AC50 was above 10 µM on Thromboxane A2 receptor; above 30 µM on Mu-type opioid receptor [5]; above 30 µM at Mu-type opioid receptor [6]; above 30 µM in [7]; above 10 µM in assay [2]; above 10 µM in assay [4].

Regarding `O=C(NC[C@H]1CN(c2ccc(N3CCOCC3=O)cc2)C(=O)O1)c1ccc(Cl)s1` [RIVAROXABAN], the AC50 (on Mu-type opioid receptor [6]; in assay [1]; in assay [3]; on Estrogen receptor) was above 30 µM in each case.

Turning to `CS(=O)(=O)c1ccc([C@@H](O)[C@@H](CO)NC(=O)C(Cl)Cl)cc1` [THIAMPHENICOL], the half-maximal activity concentration (AC50) (on Thromboxane A2 receptor; on Adenosine receptor A3; at Mu-type opioid receptor [5]; at Prothrombin; in assay [1]; in assay [2]) was above 30 µM each time. The AC50 (in assay [3]; at Estrogen receptor; in assay [4]) was above 30 µM each time.

Consider `NC[C@H]1CC[C@H](C(=O)O)CC1` [TRANEXAMIC ACID], for which the concentration at half-maximal activity (AC50) is above 10 µM on Thromboxane A2 receptor; above 30 µM on Mu-type opioid receptor [5]; above 30 µM on Mu-type opioid receptor [6]; above 30 µM in assay [7]; above 10 µM in assay [2]; above 10 µM in assay [4].

On to `CC(C)NCC(O)COc1ccc(COCCOC(C)C)cc1` (stereo not given) [BISOPROLOL], for which the AC50 at Thromboxane A2 receptor was above 30 µM; on Mu-type opioid receptor [5] it was above 30 µM; at Mu-type opioid receptor [6], above 10 µM; in assay [7] it was above 10 µM; in [2] it was above 30 µM; in [4], above 10 µM.

For the compound `C[C@H]1C[C@@H]2[C@H]([C@@H](O)C[C@@]3(C)[C@H]2CC[C@]3(O)C(=O)CO)[C@@]2(C)C=CC(=O)C=C12` [METHYLPREDNISOLONE], the half-maximal activity concentration (AC50) on Thromboxane A2 receptor is above 10 µM; on Mu-type opioid receptor [5], above 30 µM; at Mu-type opioid receptor [6] it was above 30 µM; in [7], above 30 µM; in assay [2], above 10 µM; in assay [4], above 10 µM.

In the case of `O=C(O)c1cc(-c2ccc(F)cc2F)ccc1O` [DIFLUNISAL], the AC50 is above 10 µM on Thromboxane A2 receptor; above 30 µM at Mu-type opioid receptor [5]; above 30 µM on Mu-type opioid receptor [6]; above 30 µM in [7]; above 10 µM in assay [2]; above 10 µM in [4].

Regarding `C(=N\NC1=NCCN1)/c1c2ccccc2c(/C=N/NC2=NCCN2)c2ccccc12` [BISANTRENE], the AC50 was 2.01 µM on Adenosine receptor A3; above 30 µM on Prothrombin; 7.13 µM in [1]; 1.65 µM in assay [3]; above 30 µM on Estrogen receptor.

With `NC[C@H]1O[C@H](O[C@H]2[C@H](O)[C@@H](O[C@H]3O[C@H](CO)[C@@H](O)[C@H](N)[C@H]3O)[C@H](N)C[C@@H]2N)[C@H](O)[C@@H](O)[C@@H]1O` [KANAMYCIN], the AC50 at Thromboxane A2 receptor is above 10 µM; at Mu-type opioid receptor [5], above 30 µM; at Mu-type opioid receptor [6], above 30 µM; in [7], above 30 µM; in assay [2], above 10 µM; in [4], above 10 µM.
